Here are results for six molecules from ChEMBL document CHEMBL5385904, “Design, synthesis and biological evaluation of seco-DSP/DCK derivatives reversing P-glycoprotein-mediated paclitaxel resistance in A2780/T cells” (Eur J Med Chem, 2023).

The term IC50 denotes the concentration needed to halve the response being measured. A word on the inhibition: it is the share of the control response that was lost under treatment. The low end stands for little suppression, the high end for strong suppression.

The source made the active and inactive calls. The rule behind the calls is not given here.

Data set [1] concerns A2780/Taxol. Description: Cytotoxicity against human A2780/Taxol cells assessed survival rate at 10 uM incubated for 48 hrs by MTT assay. It is filed as functional.
For data set [2], the system named is A2780/Taxol. Kind of data set: Reversal of multi-drug resistance in human A2780/Taxol cells incubated for 48 hrs by MTT assay. It is filed as functional, cell-based. In general terms: Tetrazolium dyes change colour on reduction, which living cells bring about.
The test system of data set [3] is A2780/Taxol. Description: Reversal of multidrug resistance in human A2780/Taxol Cells assessed as reversal fold of paclitaxel IC50 at 10 uM incubated for 48 hrs by MTT assay. The data set is classed as functional.
For data set [4], the system named is A2780/Taxol. Kind of data set: Reversal of multi-drug resistance in human A2780/Taxol cells at 5 to 20 uM incubated for 48 hrs by MTT assay. The data set is classed as functional, cell-based. The settings on record: dose 5-20 µM.
The test system of data set [5] is A2780. Description: Reversal of drug-sensitive human A2780 cells at 2.5 to 20 uM incubated for 48 hrs in presence of paclitaxel by MTT assay. The settings on record: dose 2.5-20 µM. The data set is classed as functional, cell-based.
The test system of data set [6] is A2780. Kind of data set: Cytotoxicity against human A2780 cells assessed as reduction in cell viability at 10 to 20 uM incubated for 48 hrs by MTT assay. It is filed as functional, cell-based. Particulars: dose 10-20 µM.
The subject of data set [7] is A2780/Taxol. Description: Effect on p-gp expression in human A2780/Taxol cells at 5 to 20 uM by Western blot analysis. The data set is classed as functional, cell-based. Particulars: dose 5-20 µM. Background: In western blotting, separated proteins are transferred to a membrane and probed.
Data set [8] has as its target T1, ATP-dependent translocase ABCB1 (Homo sapiens, UniProt P08183). Kind of data set: Inhibition of P-gp in human A2780/Taxol cells assessed as paclitaxel accumulation in cells by measuring increase in fluorescence intensity at 2.5 to 20 uM incubated for 8 hrs. The data set is classed as cell-based. The settings on record: dose 2.5-20 µM.
Data set [9] has as its target T1, ATP-dependent translocase ABCB1. Description: Inhibition of P-gp in human A2780/Taxol cells assessed as paclitaxel accumulation in cells by measuring increase in fluorescence intensity incubated for 8 hrs. The settings on record: at 2.5 to 20 µM, dose 2.5-20 µM. It is filed as cell-based.
For data set [10] the target is unchanged. Kind of data set: Inhibition of P-gp in human A2780/Taxol cells assessed as paclitaxel accumulation in cells by measuring increase in fluorescence intensity at 5 to 20 uM incubated for 8 hrs. It is filed as cell-based. The settings on record: dose 5-20 µM.
Data set [11] shares this target. Description: Inhibition of P-gp in human A2780/Taxol cells assessed as paclitaxel accumulation in cells by measuring increase in fluorescence intensity at 2.5 to 10 uM incubated for 8 hrs. The data set is classed as cell-based. The settings on record: dose 2.5-10 µM.
Data set [12] has the same target. Kind of data set: Inhibition of P-gp-mediated rhodamine-123 efflux in human A2780/Taxol cells assessed as increase in fluorescence intensity at 10 uM by flow cytometric analysis. The data set is classed as cell-based. Particulars: 1 h, TDE = time-dependent effect, time < 60 min.
The target is the same in data set [13]. Kind of data set: Inhibition of P-gp-mediated rhodamine-123 efflux in human A2780/Taxol cells assessed as increase in fluorescence intensity at 10 uM measured upto 60 mins by flow cytometric analysis. It is filed as cell-based. Particulars: 1 h. A general note: Flow cytometry measures light scatter and fluorescence of single cells or particles in a stream.

Data set [14] addresses T2, hERG (KCNH2) (Homo sapiens, UniProt Q12809). Kind of data set: Inhibition of hERG at 40 uM by patch clamp assay relative to control. It is filed as toxicity.
Data set [15] addresses Voltage-gated inwardly rectifying potassium channel KCNH2 (Homo sapiens, UniProt Q12809). Description: Inhibition of hERG by patch clamp assay. It is filed as toxicity.
Data set [16] can be described thus: Stability in human microsomal fraction preincubated for 10 mins followed by NADPH addition and measured upto 60 mins by LC-MS/MS analysis. It is filed as ADME, microsomes, Microsome. Particulars: time < 70 min, read-out: Stability.
Data set [17] in a line: Stability in mouse plasma assessed as parent compound remaining measured immediately by LC-MS/MS analysis. The data set is classed as ADME, cell-free. Particulars: read-out: Stability.
Data set [18] can be described thus: Stability in mouse plasma assessed as parent compound remaining measured at 30 mins by LC-MS/MS analysis. The settings on record: read-out: Stability. It is filed as ADME, cell-free.
Data set [19] in a line: Stability in water assessed as parent compound remaining measured immediately by LC-MS/MS analysis. The data set is classed as physicochemical. Particulars: read-out: Stability.
Data set [20] can be described thus: Stability in water assessed as parent compound remaining measured at 30 mins by LC-MS/MS analysis. The settings on record: read-out: Stability. It is filed as physicochemical.
The subject of data set [21] is A2780/Taxol. Kind of data set: Reversal of multi-drug resistance in human A2780/Taxol cells at 10 to 20 uM incubated for 48 hrs by MTT assay. The data set is classed as functional, cell-based. Particulars: dose 10-20 µM.
In data set [22] the target is T2, hERG (KCNH2). Description: Inhibition of hERG at 3 uM by patch clamp assay relative to control. The data set is classed as toxicity.

T2 sequence (Q12809 whole entry): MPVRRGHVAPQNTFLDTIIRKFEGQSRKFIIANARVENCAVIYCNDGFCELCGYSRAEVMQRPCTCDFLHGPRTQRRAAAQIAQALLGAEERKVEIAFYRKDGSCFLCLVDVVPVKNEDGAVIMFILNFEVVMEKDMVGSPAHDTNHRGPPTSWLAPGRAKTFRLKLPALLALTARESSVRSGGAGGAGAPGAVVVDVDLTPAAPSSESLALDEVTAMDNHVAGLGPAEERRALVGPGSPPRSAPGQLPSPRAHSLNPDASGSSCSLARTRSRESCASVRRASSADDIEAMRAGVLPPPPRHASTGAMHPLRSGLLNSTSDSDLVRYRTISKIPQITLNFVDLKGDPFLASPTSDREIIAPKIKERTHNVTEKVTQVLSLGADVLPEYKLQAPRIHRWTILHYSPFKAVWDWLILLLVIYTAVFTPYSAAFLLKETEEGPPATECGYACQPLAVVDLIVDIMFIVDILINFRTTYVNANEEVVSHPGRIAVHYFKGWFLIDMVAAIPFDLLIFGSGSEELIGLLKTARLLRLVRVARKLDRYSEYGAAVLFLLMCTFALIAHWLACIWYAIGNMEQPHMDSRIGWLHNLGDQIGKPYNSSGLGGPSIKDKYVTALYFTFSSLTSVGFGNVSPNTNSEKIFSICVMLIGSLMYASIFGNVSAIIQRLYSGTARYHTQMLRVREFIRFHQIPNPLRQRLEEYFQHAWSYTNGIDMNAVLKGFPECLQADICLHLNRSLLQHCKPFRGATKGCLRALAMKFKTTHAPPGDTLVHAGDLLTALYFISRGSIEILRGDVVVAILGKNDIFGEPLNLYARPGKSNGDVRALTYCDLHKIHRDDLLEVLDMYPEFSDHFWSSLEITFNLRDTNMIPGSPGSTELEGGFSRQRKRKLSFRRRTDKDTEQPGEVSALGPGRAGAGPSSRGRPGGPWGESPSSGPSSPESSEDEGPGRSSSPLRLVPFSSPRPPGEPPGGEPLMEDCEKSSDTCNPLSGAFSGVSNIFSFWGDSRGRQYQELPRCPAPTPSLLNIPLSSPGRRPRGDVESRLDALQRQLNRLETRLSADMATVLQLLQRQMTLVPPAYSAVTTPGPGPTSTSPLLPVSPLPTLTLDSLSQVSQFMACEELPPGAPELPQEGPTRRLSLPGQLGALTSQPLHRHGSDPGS
T1 sequence (P08183 whole entry): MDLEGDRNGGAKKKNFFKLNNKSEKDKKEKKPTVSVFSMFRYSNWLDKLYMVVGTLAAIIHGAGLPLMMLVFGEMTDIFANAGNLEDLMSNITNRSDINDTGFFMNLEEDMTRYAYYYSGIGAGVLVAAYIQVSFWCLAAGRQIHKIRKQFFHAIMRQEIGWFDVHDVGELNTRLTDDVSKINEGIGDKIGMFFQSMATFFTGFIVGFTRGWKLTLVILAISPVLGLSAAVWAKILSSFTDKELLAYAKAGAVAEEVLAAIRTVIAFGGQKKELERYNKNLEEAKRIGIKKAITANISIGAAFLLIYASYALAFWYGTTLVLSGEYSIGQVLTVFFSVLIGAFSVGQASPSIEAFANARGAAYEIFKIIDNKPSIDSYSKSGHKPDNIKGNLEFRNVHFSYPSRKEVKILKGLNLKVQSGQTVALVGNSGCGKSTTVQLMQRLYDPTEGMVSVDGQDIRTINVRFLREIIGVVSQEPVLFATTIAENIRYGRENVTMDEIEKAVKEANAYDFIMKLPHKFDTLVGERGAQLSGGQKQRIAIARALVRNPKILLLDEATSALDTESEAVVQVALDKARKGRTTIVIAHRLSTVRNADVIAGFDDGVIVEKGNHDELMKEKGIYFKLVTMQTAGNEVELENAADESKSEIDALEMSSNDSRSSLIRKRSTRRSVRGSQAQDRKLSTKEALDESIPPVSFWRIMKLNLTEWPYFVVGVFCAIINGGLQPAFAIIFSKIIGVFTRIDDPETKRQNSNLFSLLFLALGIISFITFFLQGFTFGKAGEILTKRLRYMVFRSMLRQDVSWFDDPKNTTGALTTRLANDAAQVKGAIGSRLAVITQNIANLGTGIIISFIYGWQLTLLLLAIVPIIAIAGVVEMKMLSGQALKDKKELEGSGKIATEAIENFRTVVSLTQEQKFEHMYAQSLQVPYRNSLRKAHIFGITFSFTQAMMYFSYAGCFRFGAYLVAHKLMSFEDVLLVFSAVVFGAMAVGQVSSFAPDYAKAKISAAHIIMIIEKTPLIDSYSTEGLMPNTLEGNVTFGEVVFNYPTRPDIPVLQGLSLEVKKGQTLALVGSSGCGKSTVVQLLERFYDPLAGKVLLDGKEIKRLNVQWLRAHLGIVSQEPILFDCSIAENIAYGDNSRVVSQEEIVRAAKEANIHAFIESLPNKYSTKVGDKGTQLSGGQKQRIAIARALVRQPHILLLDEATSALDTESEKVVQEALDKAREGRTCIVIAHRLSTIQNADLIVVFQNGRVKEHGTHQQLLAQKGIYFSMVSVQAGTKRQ
Chain of Voltage-gated inwardly rectifying potassium channel KCNH2 (Q12809 whole entry): as the sequence (Q12809 whole entry) above

In data set [1], `COc1cc(CC(=O)OCc2c(OC(C)C)ccc3c(C)c(Cc4ccccc4)c(=O)oc23)cc(OC)c1OC` yielded a Cell survival rate of 81%. For the same molecule, the results for the IC50 in data set [2] and in [15] were 10 nM and greater than 40000 nM, respectively. The Activity entry in data set [2] (dose 2.5-20 µM) was “Dose-Dependent Effect”. The “fold change (FC)” value in data set [3] turned out to be 425. For the same molecule, the outcome in data set [4], in data set [5], in [6] and in data set [7] was Active. Besides, the “inhibition (INH)” value was “Active” in [8]; “Dose-Dependent Effect” in [9]; “Active” in data set [10]; “Active” in [11]; “Tde” in [12]; “Active” in [13]. Moreover, the inhibition at 40 µM in data set [14] amounted to 19%. In addition, in [16], the remaining at 1 h was 0.877%. In addition, the remaining at 0 min in data set [17] and in [19] was 100% throughout. Further, the figures for the remaining at 0.5 h in data set [18] and in data set [20] were 0.72% and 89.1%, respectively.

Regarding `COc1cc2c(cc1OC)CN(CCc1ccc(NC(=O)c3cc(OC)c(OC)cc3NC(=O)c3cnc4ccccc4c3)cc1)CC2` [TARIQUIDAR], the outcome in [21], in data set [5] and in data set [6] was Active. For the same molecule, in [10], the “inhibition (INH)” value is “Active”.

In data set [1], `CCOc1ccc2c(C)cc(=O)oc2c1CNC(=O)/C=C/c1ccc(OC)cc1` showed a Cell survival rate of 96%. In addition, the figures for the half-inhibitory concentration (IC50) in data set [2] and in data set [15] were 29 nM and greater than 40000 nM, respectively. Moreover, the “fold change (FC)” value in data set [3] is 150. Also, the inhibition at 40 µM in data set [14] amounted to 32.5%. Besides, the remaining at 1 h in [16] stood at 44.3%.

In the case of `COc1ccc(CCN(C)CCCC(C#N)(c2ccc(OC)c(OC)c2)C(C)C)cc1OC` (stereo not given) [VERAPAMIL], the Cell survival rate in data set [1] is reported as 81%. The result in data set [21], in data set [5] and in [6] was Active.

With `CCOc1ccc2c(=O)cc(CC)oc2c1CNC(=O)/C=C/c1ccc(OC)cc1`, the Cell survival rate in data set [1] is listed as 91%. In [2], the IC50 amounted to 29 nM. Besides, the “fold change (FC)” value in data set [3] is listed as 153. Besides, the remaining at 1 h in data set [16] worked out at 11.8%.

Turning to `COc1cc(N)c(Cl)cc1C(=O)NC1CCN(CCCOc2ccc(F)cc2)CC1OC` (stereo not given) [CISAPRIDE], the inhibition at 3 µM in data set [22] stood at 98%.
